Measured values reported in PMC4067310, “From Pan-Reactive KV7 Channel Opener to Subtype Selective Opener/Inhibitor by Addition of a Methyl Group” (PLoS ONE, 2014).
Where two headings read alike, the source gives them in different places.

Assays:
[1] = Brain and plasma exposure in rats after subcutaneous administration; format: in vivo; conditions: male, Sprague-Dawley, sc, rat, 20 mg/kg s.c.; for concentration at 30 min / concentration at 120 min: n = 3, mean ± S.E.M
Description: Brain and plasma exposure of SMB-1 was evaluated in male Sprague-Dawley rats (225–250 g, Charles River Lab., UK). SMB-1 was administered subcutaneously in solution at a dose of 20 mg/kg in 25% solutol (dose volume 5 ml/kg) and exposure was assessed after 30 and 120 min (n = 3). Under isoflurane anesthesia, cardiac blood was obtained in EDTA-coated tubes and centrifuged for 10 min at 4°C, after which plasma was harvested. While still under anesthesia, the animal was decapitated, the brain was removed and brain homogenate was prepared by homogenizing the whole brain with 70% acetonitrile (1∶4 v/v) followed by centrifugation and collection of the supernatant. Concentrations of SMB-1 were determined using turboflow chromatography (dual column, focus mode; Thermo Fisher Scientific, Waltham, MA) followed by tandem mass spectrometry detection (Sciex API-3000 MS; Applied Biosystems, Foster City, CA). The limit of detection was 1 ng/ml in plasma and 5 ng/g in brain.

KV7.4-W242L = biological target: T1, KV7.4-W242L (Homo sapiens, UniProt P56696, W242L); experiment: Two-electrode voltage-clamp of mutant KV7.4-W242L in Xenopus laevis oocytes; format: cell-based
T1 construct: expressed in transfected cells; host or cells: Xenopus laevis oocytes injected with cRNA (pGEM-HE vector)
T1 sequence (P56696 1-695 W242L): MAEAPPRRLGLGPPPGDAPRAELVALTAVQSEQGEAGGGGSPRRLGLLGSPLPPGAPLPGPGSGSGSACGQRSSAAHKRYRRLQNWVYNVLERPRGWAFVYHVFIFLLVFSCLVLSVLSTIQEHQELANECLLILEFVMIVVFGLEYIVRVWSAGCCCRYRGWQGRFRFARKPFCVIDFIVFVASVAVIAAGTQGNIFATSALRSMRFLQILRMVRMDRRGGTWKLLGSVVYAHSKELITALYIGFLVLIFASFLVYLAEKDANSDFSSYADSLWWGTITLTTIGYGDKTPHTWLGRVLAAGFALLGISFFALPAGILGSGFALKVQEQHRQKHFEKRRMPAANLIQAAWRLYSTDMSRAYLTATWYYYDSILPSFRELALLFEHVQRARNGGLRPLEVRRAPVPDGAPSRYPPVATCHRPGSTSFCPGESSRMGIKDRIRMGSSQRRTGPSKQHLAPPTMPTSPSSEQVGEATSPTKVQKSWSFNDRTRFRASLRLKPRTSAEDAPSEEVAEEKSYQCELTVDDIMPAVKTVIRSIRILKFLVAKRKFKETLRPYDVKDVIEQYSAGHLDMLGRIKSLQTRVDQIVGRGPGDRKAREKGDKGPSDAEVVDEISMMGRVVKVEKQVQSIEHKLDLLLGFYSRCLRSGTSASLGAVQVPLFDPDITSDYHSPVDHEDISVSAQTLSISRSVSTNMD
Description: Point mutations were introduced using mutated oligonucleotide extension (PfuTurbo Polymerase, Stratagene, La Jolla, CA, USA) from a plasmid template harboring the cDNA of interest, digested with DpnI (Fermentas, St. Leon-Roth, Germany) and transformed into E.coli XL1 Blue cells. The construct was verified by complete DNA sequencing of the cDNA insert. cRNA was prepared from linearized human wild-type (WT) and mutant KV7 channels in the pGEM-HE vector using the T7 m-Message Machine kit (Ambion, Austin, TX, USA) according to the manufacturer's instructions.
Extraction of Xenopus laevis oocytes and injection of cRNA was performed as described previously. Oocytes were kept in Modified Barth's Saline (in mM: 88 NaCl, 1 KCl, 2.4 NaHCO3, 0.41 CaCl2, 0.82 MgSO4, 0.3 Ca(NO3)2, 15 HEPES, pH 7.4 supplemented with 100 U/mL penicillin and 100 µg/mL streptomycin) at 18°C, and currents were recorded after 2-7 days. The care of Xenopus laevis and the oocyte extraction procedure were performed according to national guidelines and approved by the Danish Animal Experiments Inspectorate.
KV7 currents in Xenopus laevis oocytes were recorded using two-electrode voltage-clamp at room temperature in Ringer buffer (in mM: 115 NaCl, 2.5 KCl, 1.8 CaCl2, 0.1 MgCl2, 10 HEPES, pH 7.4) as described previously. Data was acquired using pCLAMP 10.2 software (Molecular Devices, CA, USA) and analyzed using pCLAMP 10.2 and GraphPad Prism 4.0 (GraphPad Software Inc., CA, USA). Currents were elicited from a holding potential of −80 mV by 5 s steps to potentials between −100 and +50 mV in 10 mV increments, followed by a 2 s step to −120 mV.
SMB-1 was dissolved in dimethyl sulfoxide (DMSO) to obtain a concentrated stock solution. […]
Current – voltage (I–V) relationship curves were generated by normalizing the steady-state peak current measured at potentials between −100 and +50 mV to the current measured at +50 mV in control recordings and plotting the values against the test potential.
The voltage-dependence of activation was determined from tail current analysis using the current measured immediately after the transient capacitive current after stepping to −120 mV from potentials between −100 mV and +50 mV. […] A V0.5 was calculated for each individual experiment and statistical significance was estimated by paired two-tailed Student's t-test.
Activation kinetics for KV7.4 and KV7.4-W242L was determined by fitting the traces recorded at potentials between −30 and +50 mV to a single exponential function: [drawing 3] […]
For investigation of deactivation kinetics the tail current traces recorded at −120 mV when stepping from the channels' respective ∼V0.5 were fitted to a single exponential function (Eq. 3).

[2] = brain, read-out: Brain total concentration
[3] = plasma, read-out: Plasma total concentration

concentration at 30 min [1, 2]: 0.55 ± 0.04 µM | concentration at 120 min [1, 2]: 0.44 ± 0.07 µM | Kp at 2 h ([1]; brain/plasma, 30 and 120 min, read-out: brain/plasma partition coefficient): 0.04 to 0.07 | concentration at 30 min [1, 3]: 14 ± 1.5 µM | concentration at 120 min [1, 3]: 6.4 ± 0.7 µM | effect on activation kinetics (KV7.4-W242L; 10 µM): neither any significant effect | remaining activity at 10 µM (KV7.4-W242L; 10 µM SMB-1, +50 mV, n = 5, read-out: current amplitude, % of control): 74.8 ± 4.2% | V0.5, voltage-dependence of activation in presence of compound (KV7.4-W242L; 10 µM, control 5.5±4.5 mV, n = 5, p = 0.2): 4.3±4.9 mV | τdeact, deactivation time constant in presence of compound (KV7.4-W242L; 10 µM, control 12.5±2.2 ms, n = 5, p = 0.5): 12.3 ± 2.2 ms
Structure (SMILES): C[C@@H](c1ccc2c(c1)N(CC1CC1)CCO2)N(C)C(=O)/C=C/c1ccccc1F [SMB-1, (E)-N-[(S)-1-(4-Cyclopropylmethyl-3,4-dihydro-2H-1,4-benzoxazin-6-yl)-ethyl]-3-(2-fluoro-phenyl)-N-methyl-acrylamide]
